What was measured:
[1] = biological target: T1, Monoglyceride lipase (Rattus norvegicus) (UniProt Q8R431); assay: (§1) Inhibition of MGL in rat cerebellum cytosolic fractions assessed as [3H]2-oleoylglycerol hydrolysis; format: tissue-based
T1 sequence (whole entry): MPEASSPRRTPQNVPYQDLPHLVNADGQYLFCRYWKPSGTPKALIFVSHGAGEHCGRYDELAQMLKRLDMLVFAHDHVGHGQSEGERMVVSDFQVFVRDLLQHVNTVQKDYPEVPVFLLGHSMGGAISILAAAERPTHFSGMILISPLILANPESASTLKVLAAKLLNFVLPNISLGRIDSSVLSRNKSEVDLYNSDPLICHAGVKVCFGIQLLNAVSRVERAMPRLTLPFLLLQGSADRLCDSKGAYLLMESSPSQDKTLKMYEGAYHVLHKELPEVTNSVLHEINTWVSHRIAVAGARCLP

Monoglyceride lipase [2] = biological target: T2, Monoglyceride lipase (Rattus norvegicus, UniProt Q8R431); assay: as §1; format: tissue-based
T2 sequence (Q8R431 whole entry): T1 sequence (whole entry)

[3] = biological target: T1, Monoglyceride lipase (Rattus norvegicus); assay: (§2) Inhibition of MGL in rat cerebellum membrane fractions assessed as [3H]2-oleoylglycerol hydrolysis; format: cell membranes
[4] = biological target: T1, Monoglyceride lipase (Rattus norvegicus); assay: Inhibition of MGL in rat cerebellum cytosolic fractions assessed as [3H]2-oleoylglycerol hydrolysis at 100 uM; format: tissue-based
[5] = biological target: T1, Monoglyceride lipase (Rattus norvegicus); assay: Inhibition of MGL in rat cerebellum membrane fractions assessed as [3H]2-oleoylglycerol hydrolysis at 100 uM; format: cell membranes
[6] = biological target: T3, Fatty-acid amide hydrolase 1 (Rattus norvegicus) (UniProt P97612); assay: (§3) Inhibition of FAAH in rat cerebellum membranes assessed as [3H]anandamide hydrolysis; format: cell membranes; conditions: Membrane
T3 sequence (whole entry): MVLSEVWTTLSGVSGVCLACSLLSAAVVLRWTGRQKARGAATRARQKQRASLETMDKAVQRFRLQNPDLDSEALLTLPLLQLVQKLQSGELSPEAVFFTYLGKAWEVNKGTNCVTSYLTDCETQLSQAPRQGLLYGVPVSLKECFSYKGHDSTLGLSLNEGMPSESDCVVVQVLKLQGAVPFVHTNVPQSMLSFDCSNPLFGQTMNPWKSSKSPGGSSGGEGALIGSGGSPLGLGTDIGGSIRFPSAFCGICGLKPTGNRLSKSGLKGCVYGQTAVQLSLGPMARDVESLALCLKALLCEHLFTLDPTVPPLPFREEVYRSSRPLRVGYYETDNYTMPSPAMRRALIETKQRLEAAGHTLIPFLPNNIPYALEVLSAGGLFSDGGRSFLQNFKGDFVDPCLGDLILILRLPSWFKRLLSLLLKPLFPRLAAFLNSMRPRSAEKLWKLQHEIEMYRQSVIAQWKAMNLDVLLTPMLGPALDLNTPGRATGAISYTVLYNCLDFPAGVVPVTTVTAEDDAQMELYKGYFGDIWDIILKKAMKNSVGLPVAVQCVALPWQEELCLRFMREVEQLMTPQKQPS

[7] = biological target: T4, Fatty-acid amide hydrolase 1 (Rattus norvegicus, UniProt P97612); assay: as §3; format: cell membranes, Membrane
T4 sequence (P97612 whole entry): T3 sequence (whole entry)

[8] = biological target: T3, Fatty-acid amide hydrolase 1 (Rattus norvegicus); assay: Inhibition of FAAH in rat cerebellum membranes assessed as [3H]anandamide hydrolysis at 100 uM; format: cell membranes; conditions: Membrane
Monoglyceride lipase [9] = biological target: T2, Monoglyceride lipase; assay: as §2; format: cell membranes

| Structure (SMILES) | pI50 (-log I50, M) [1] | Log I50 [3] | inhibition [4] [%] | inhibition [5] [%] | pI50 (-log10 of IC50 in M) [6] | IC50 [7] [µM] | inhibition [8] [%] | IC50 (Monoglyceride lipase [2]) [µM] | IC50 (Monoglyceride lipase [9]) [µM] |
| --- | --- | --- | --- | --- | --- | --- | --- | --- | --- |
| CCCCC/C=C\C/C=C\C/C=C\C/C=C\CCCC(=O)OC1CCOCC1 | 4.5 | < 4 | 62 | 33 | 5.3 | 5.3 | 63 | 30 |  |
| CCCCC/C=C\C/C=C\C/C=C\C/C=C\CCCC(=O)OCc1ccc2c(c1)OCO2 | 4.35 | < 4 |  | 3 | 4 | 91 |  | 45 |  |
| CCCCC/C=C\C/C=C\C/C=C\C/C=C\CCCC(=O)OC[C@@H]1COC(C)(C)O1 | < 4 | < 4 | 46 | 38 | 4.76 | 17 |  |  |  |
| CCCCC/C=C\C/C=C\C/C=C\C/C=C\CCCC(=O)OC[C@H]1CO1 | 5.2 | < 4 |  |  |  | 6 |  | 6.3 |  |
| CCCCC/C=C\C/C=C\C/C=C\C/C=C\CCCC(=O)OC[C@H]1COC(C)(C)O1 | 4.22 | < 4 |  | 34 | 4.55 | 28 |  | 60 |  |
| CCCCC/C=C\C/C=C\C/C=C\C/C=C\CCCC(=O)NC[C@@H]1CCCO1 | 5.5 | 4.1 | 59 |  | 4.16 | 69 |  | 3.5 | 70 |
| CCCCC/C=C\C/C=C\C/C=C\C/C=C\CCCC(=O)NCC1CCCO1 (stereo not drawn) | 4.47 | < 4 |  | 44 | 4.25 | 56 |  | 34 |  |
| CCCCC/C=C\C/C=C\C/C=C\C/C=C\CCCC(=O)NC[C@H]1CCCO1 | 4.59 | 4.09 |  |  | 4.01 | 99 |  | 25 | 81 |
| CCCCC/C=C\C/C=C\C/C=C\C/C=C\CCCC(=O)OC[C@@H]1CO1 | 5.1 | < 4 |  |  |  | 12 |  | 8 |  |
| CCCCC/C=C\C/C=C\C/C=C\C/C=C\CCCC(=O)OCC1COC(C)(C)O1 (racemic) | 4.3 | 4 |  |  | 4 | 98 |  | 45 | 95 |
| CCCCC/C=C\C/C=C\C/C=C\C/C=C\CCCC(=O)OCC1CCCCO1 (racemic) | 5.26 | 4.58 |  |  | 4.3 | 51 |  | 5.6 | 26 |
| O=C(OCC1CCCCO1)c1ccccc1-c1ccccc1 (racemic) | < 4 | < 4 | 38 | 47 | 4.37 | 43 |  |  |  |
| CCCCC/C=C\C/C=C\C/C=C\C/C=C\CCCC(=O)NCC1COC(C)(C)O1 (racemic) | 4.8 | < 4 | 71 | 45 | 4.05 | 90 |  | 15 |  |
| CCCCC/C=C\C/C=C\C/C=C\C/C=C\CCCC(=O)OCC1CO1 (racemic) |  | 4.72 |  |  |  | 12 |  |  | 19 |

Continued, in another order:

| pI50 (-log I50, M) [1] | Log I50 [3] | inhibition [4] [%] | inhibition [5] [%] | pI50 (-log10 of IC50 in M) [6] | IC50 [7] [µM] | inhibition [8] [%] | Structure (SMILES) | IC50 (Monoglyceride lipase [2]) [µM] | IC50 (Monoglyceride lipase [9]) [µM] |
| --- | --- | --- | --- | --- | --- | --- | --- | --- | --- |
| 4.67 | 4.1 |  |  | 4.48 | 33 |  | CCCCC/C=C\C/C=C\C/C=C\C/C=C\CCCC(=O)OCC1CCCO1 (stereo not drawn) | 21 | 75 |
| 4.37 | < 4 |  | 46 | 4.98 | 11 | 78 | CCCCC/C=C\C/C=C\C/C=C\C/C=C\CCCC(=O)OCC1CCOC1 (stereo not drawn) | 43 |  |
| 4.57 | 4 |  |  | 4.68 | 21 |  | CCCCC/C=C\C/C=C\C/C=C\C/C=C\CCCC(=O)OCCC1OCC(C)(C)CO1 | 27 | 99 |
|  |  |  | 18 |  |  |  | CCCCC/C=C\C/C=C\CCCCCCCC(=O)OCC1CO1 (racemic) |  |  |
| < 4 | < 4 | 6 | 8 | 4.96 | 11 |  | CCCCCCCC/C=C\CCCCCCCC(=O)OCC1CO1 (racemic) |  |  |
| 4.87 | 4.55 | 84 |  | 5.09 | 8.2 |  | CCCCCC/C=C\CCCCCCCC(=O)OCC1CO1 (racemic) | 13 | 28 |
| 4.64 | < 4 |  | 33 | 4.73 | 19 |  | CC/C=C\C/C=C\C/C=C\CCCCCCCC(=O)OCC1CCCCO1 (racemic) | 23 |  |
| < 4 | < 4 | 12 | 35 | 4.53 | 29 |  | CCCCCCCC/C=C\CCCCCCCC(=O)OCC1CCCCO1 (racemic) |  |  |
| < 4 | < 4 | 42 | 36 | 5 | 10 | 82 | CCCCCC/C=C\CCCCCCCC(=O)OCC1CCCCO1 (racemic) |  |  |
| < 4 | < 4 | 43 | 9 | 4.45 | 35 |  | O=C(OCC1CO1)c1ccc(-c2ccccc2)cc1 (racemic) |  |  |
| < 4 | < 4 | 36 | 49 | 4.75 | 18 |  | O=C(OCC1CCCCO1)c1cccc(-c2ccccc2)c1 (racemic) |  |  |
| < 4 | 4.1 | 43 |  | 4.49 | 32 |  | O=C(OCC1CCCCO1)c1ccc(-c2ccccc2)cc1 (racemic) |  | 80 |
| 5.5 | < 4 | 53 | 24 | 4.28 | 53 |  | O=C(OCC1CCCCO1)c1ccccc1 (racemic) | 3 |  |
| < 4 | < 4 | 40 | 19 | 4.22 | 61 |  | O=C(OCC1CO1)c1cccc(-c2ccccc2)c1 (racemic) |  |  |
| 4.97 | 4.3 |  |  | 5.8 | 1.6 |  | CC/C=C\C/C=C\C/C=C\CCCCCCCC(=O)OCC1CO1 (racemic) | 11 | 50 |
| 4.1 | < 4 |  | 38 | 5.13 | 7.5 |  | CCCCC/C=C\C/C=C\CCCCCCCC(=O)OCC1CCCCO1 (racemic) | 73 |  |
| < 4 | < 4 | 14 | 0.2 | < 4 |  | 19 | O=C(OCC1CO1)c1ccccc1 (racemic) |  |  |
| < 4 | < 4 | 29 | 18 | < 4 |  | 5 | O=C(OCC1CO1)c1ccccc1-c1ccccc1 (racemic) |  |  |
